Measured values reported in ChEMBL document CHEMBL1240316, “An oxidation-sensing mechanism is used by the global regulator MgrA in Staphylococcus aureus” (2006).
Calls of active or inactive are those of the source. The calls are words filed in the database; no cut-off is given here.

How the values were obtained:
Assay type in all cases: functional, organism-based
[1] = tested on: Staphylococcus aureus; assay: Antimicrobial activity against Staphylococcus aureus assessed as visible growth at 1 ug/ml after 24 hrs in presence of 20 uM paraquat
[2] = tested on: Staphylococcus aureus; assay: Antimicrobial activity against Staphylococcus aureus assessed as visible growth at 1.4 ug/ml after 24 hrs in presence of 20 uM paraquat
[3] = tested on: Staphylococcus aureus; assay: Antimicrobial activity against Staphylococcus aureus assessed as visible growth at 1.8 ug/ml after 24 hrs
[4] = tested on: Staphylococcus aureus; assay: Antimicrobial activity against Staphylococcus aureus assessed as visible growth at 1.8 ug/ml after 24 hrs in presence of 20 uM paraquat
[5] = tested on: Staphylococcus aureus; assay: Antimicrobial activity against Staphylococcus aureus expressing mgrA C12S mutant gene assessed as visible growth at 0.6 ug/ml after 24 hrs in presence of 20 uM paraquat
[6] = tested on: Staphylococcus aureus; assay: Antimicrobial activity against Staphylococcus aureus expressing mgrA C12S mutant gene assessed as visible growth at 1 ug/ml after 24 hrs
[7] = tested on: Staphylococcus aureus; assay: Antimicrobial activity against Staphylococcus aureus expressing mgrA C12S mutant gene assessed as visible growth at 1 ug/ml after 24 hrs in presence of 20 uM paraquat
[8] = tested on: Staphylococcus aureus; assay: Antimicrobial activity against Staphylococcus aureus expressing mgrA C12S mutant gene harboring Pyj335-His-mgrA C12S assessed as visible growth at 1.1 ug/ml after 24 hrs in presence of 100 uM hydrogen peroxide
[9] = tested on: Staphylococcus aureus; assay: Antimicrobial activity against Staphylococcus aureus expressing mgrA C12S mutant gene harboring plasmid Pyj335 assessed as visible growth at 1.1 ug/ml after 24 hrs
[10] = tested on: Staphylococcus aureus; assay: Antimicrobial activity against Staphylococcus aureus assessed as visible growth at 1.1 ug/ml after 24 hrs
[11] = tested on: Staphylococcus aureus; assay: Antimicrobial activity against Staphylococcus aureus expressing mgrA C12S mutant gene assessed as visible growth at 1.1 ug/ml after 24 hrs in presence of 25 uM paraquat
[12] = tested on: Staphylococcus aureus; assay: Antimicrobial activity against Staphylococcus aureus expressing mgrA C12S mutant gene harboring Pyj335-His-mgrA C12S assessed as visible growth at 1.1 ug/ml after 24 hrs in presence of 25 uM of paraquat
[13] = tested on: Staphylococcus aureus; assay: Antimicrobial activity against Staphylococcus aureus expressing mgrA C12S mutant gene assessed as visible growth at 1.8 ug/ml after 24 hrs in presence of 20 uM paraquat
[14] = tested on: Staphylococcus aureus; assay: Antimicrobial activity against Staphylococcus aureus expressing mgrA C12S mutant gene harboring plasmid Pyj335 assessed as visible growth at 0.6 ug/ml after 24 hrs in presence of 20 uM paraquat
[15] = tested on: Staphylococcus aureus; assay: Antimicrobial activity against Staphylococcus aureus expressing mgrA C12S mutant gene harboring plasmid Pyj335 assessed as visible growth at 1 ug/ml after 24 hrs
[16] = tested on: Staphylococcus aureus; assay: Antimicrobial activity against Staphylococcus aureus expressing mgrA C12S mutant gene harboring plasmid Pyj335 assessed as visible growth at 1.4 ug/ml after 24 hrs in presence of 20 uM paraquat
[17] = tested on: Staphylococcus aureus; assay: Antimicrobial activity against Staphylococcus aureus expressing mgrA C12S mutant gene harboring plasmid Pyj335 assessed as visible growth at 1.8 ug/ml after 24 hrs in presence of 20 uM paraquat
[18] = tested on: Staphylococcus aureus; assay: Antimicrobial activity against Staphylococcus aureus expressing mgrA C12S mutant gene harboring plasmid Pyj335 assessed as visible growth at 2.6 ug/ml after 24 hrs
[19] = tested on: Staphylococcus aureus; assay: Antimicrobial activity against Staphylococcus aureus expressing mgrA C12S mutant gene harboring Pyj335-His-mgrA assessed as visible growth at 1 ug/ml after 24 hrs
[20] = tested on: Staphylococcus aureus; assay: Antimicrobial activity against Staphylococcus aureus expressing mgrA C12S mutant gene harboring Pyj335-His-mgrA assessed as visible growth at 1.4 ug/ml after 24 hrs in presence of 20 uM paraquat
[21] = tested on: Staphylococcus aureus; assay: Antimicrobial activity against Staphylococcus aureus expressing mgrA C12S mutant gene harboring plasmid Pyj335-His-mgrA assessed as visible growth at 1.8 ug/ml after 24 hrs in presence of 20 uM paraquat
[22] = tested on: Staphylococcus aureus; assay: Antimicrobial activity against Staphylococcus aureus assessed as visible growth at 0.35 ug/ml after 24 hrs in presence of 20 uM paraquat
[23] = tested on: Staphylococcus aureus; assay: Antimicrobial activity against Staphylococcus aureus assessed as visible growth at 0.65 ug/ml after 24 hrs
[24] = tested on: Staphylococcus aureus; assay: Antimicrobial activity against Staphylococcus aureus assessed as visible growth at 0.65 ug/ml after 24 hrs in presence of 20 uM paraquat
[25] = tested on: Staphylococcus aureus; assay: Antimicrobial activity against Staphylococcus aureus expressing mgrA C12S mutant gene assessed as visible growth at 0.45 ug/ml after 24 hrs in presence of 20 uM paraquat
[26] = tested on: Staphylococcus aureus; assay: Antimicrobial activity against Staphylococcus aureus expressing mgrA C12S mutant gene assessed as visible growth at 0.65 ug/ml after 24 hrs
[27] = tested on: Staphylococcus aureus; assay: Antimicrobial activity against Staphylococcus aureus expressing mgrA C12S mutant gene harboring Pyj335-His-mgrA C12S assessed as visible growth at 0.20 ug/ml after 24 hrs
[28] = tested on: Staphylococcus aureus; assay: Antimicrobial activity against Staphylococcus aureus expressing mgrA C12S mutant gene harboring Pyj335-His-mgrA assessed as visible growth at 0.20 ug/ml after 24 hrs
[29] = tested on: Staphylococcus aureus; assay: Antimicrobial activity against Staphylococcus aureus expressing mgrA C12S mutant gene harboring Pyj335-His-mgrA assessed as visible growth at 0.20 ug/ml after 24 hrs in presence of 100 uM hydrogen peroxide
[30] = tested on: Staphylococcus aureus; assay: Antimicrobial activity against Staphylococcus aureus expressing mgrAC12S mutant gene assessed as visible growth at 0.20 ug/ml after 24 hrs in presence of 100 uM hydrogen peroxide
[31] = tested on: Staphylococcus aureus; assay: Antimicrobial activity against Staphylococcus aureus assessed as visible growth at 0.20 ug/ml after 24 hrs
[32] = tested on: Staphylococcus aureus; assay: Antimicrobial activity against Staphylococcus aureus expressing mgrA C12S mutant gene assessed as visible growth at 0.20 ug/ml after 24 hrs in presence of 25 uM paraquat
[33] = tested on: Staphylococcus aureus; assay: Antimicrobial activity against Staphylococcus aureus expressing mgrAC12S mutant gene harboring plasmid Pyj335 assessed as visible growth at 0.55 ug/ml after 24 hrs
[34] = tested on: Staphylococcus aureus; assay: Antimicrobial activity against Staphylococcus aureus expressing mgrA C12S mutant gene harboring plasmid Pyj335 assessed as visible growth at 0.55 ug/ml after 24 hrs in presence of 20 uM paraquat
[35] = tested on: Staphylococcus aureus; assay: Antimicrobial activity against Staphylococcus aureus expressing mgrA C12S mutant gene harboring plasmid Pyj335 assessed as visible growth at 0.75 ug/ml after 24 hrs in presence of 20 uM paraquat
[36] = tested on: Staphylococcus aureus; assay: Antimicrobial activity against Staphylococcus aureus expressing mgrA C12S mutant gene harboring Pyj335-His-mgrA assessed as visible growth at 0.25 ug/ml after 24 hrs in presence of 20 uM paraquat
[37] = tested on: Staphylococcus aureus; assay: Antimicrobial activity against Staphylococcus aureus expressing mgrA C12S mutant gene harboring Pyj335-His-mgrA assessed as visible growth at 0.35 ug/ml after 24 hrs
[38] = tested on: Staphylococcus aureus; assay: Antimicrobial activity against Staphylococcus aureus expressing mgrA C12S mutant gene harboring Pyj335-His-mgrA assessed as visible growth at 0.55 ug/ml after 24 hrs

## CN[C@H](CC(C)C)C(=O)N[C@H]1C(=O)N[C@@H](CC(N)=O)C(=O)N[C@H]2C(=O)N[C@H]3C(=O)N[C@H](C(=O)N[C@H](C(=O)O)c4cc(O)cc(O)c4-c4cc3ccc4O)[C@H](O)c3ccc(c(Cl)c3)Oc3cc2cc(c3O[C@@H]2O[C@H](CO)[C@@H](O)[C@H](O)[C@H]2O[C@H]2C[C@](C)(N)[C@H](O)[C@H](C)O2)Oc2ccc(cc2Cl)[C@H]1O [VANCOMYCIN]
[1]
  Activity: inactive
[2]
  Activity: inactive
[3]
  Activity: Active
[4]
  Activity: Active
[5]
  Activity: inactive
[6]
  Activity: inactive
[7]
  Activity: inactive
[8]
  Activity: Active
[9]
  Activity: inactive
[10]
  Activity: Active
[11]
  Activity: inactive
[12]
  Activity: Active
[13]
  Activity: inactive
[14]
  Activity: inactive
[15]
  Activity: inactive
[16]
  Activity: inactive
[17]
  Activity: inactive
[18]
  Activity: Active
[19]
  Activity: inactive
[20]
  Activity: inactive
[21]
  Activity: inactive

## O=C(O)c1cn(C2CC2)c2cc(N3CCNCC3)c(F)cc2c1=O [CIPROFLOXACIN]
[22]
  Activity: inactive
[23]
  Activity: Active
[24]
  Activity: Active
[25]
  Activity: inactive
[26]
  Activity: inactive
[27]
  Activity: Active
[28]
  Activity: Active
[29]
  Activity: Active
[30]
  Activity: inactive
[31]
  Activity: Active
[32]
  Activity: inactive
[33]
  Activity: inactive
[34]
  Activity: inactive
[35]
  Activity: Active
[36]
  Activity: inactive
[37]
  Activity: Active
[38]
  Activity: Active
